Legend:
[1] = system: tobacco plants; assay: Treatment of tobacco plants with pelargonic acid: phytotoxicity (Example 3); format: in vivo, tobacco plants of the Burley and Virginia; conditions: PA 3.4, 5.1, 6.8 g/l; V 450-460 l/ha; interval of 7 days between treatments
Method: (§1) In an experimental embodiment tobacco plants of the Burley and Virginia were treated with a Volume (V) of 450-460l/ha with a composition comprising pelargonic acid (PA) at different concentrations (e.g., 3.4 g/l, 5.1 g/l and 6.8 g/l) with an interval of 7 days between treatments; the exact experimental details can be found in Table 1.

[2] = system: suckers on tobacco plants; assay: Treatment of tobacco plants with pelargonic acid: sucker growth inhibition (Example 3); format: in vivo, tobacco plants of the Burley and Virginia; conditions: PA 3.4, 5.1, 6.8 g/l; V 450-460 l/ha; interval of 7 days between treatments; across all plants
Method: as §1

[3] = system: suckers on tobacco plant; assay: Use of pelargonic acid for inhibiting the growth of suckers (Example 1, FIG. 1); format: in vivo, tobacco plant of the Burley variety; conditions: Burley tobacco; pelargonic acid applied at 0.5 g/l to 50.0 g/l; FIG. 1B
Text: To better exemplify reference is made to FIGS. 1A and 1B, which show a tobacco plant (100) of the Burley variety. […] It can be observed that at full floral development (i.e. ˜3 to 4 months) suckers (150) started to proliferate and grew into auxiliary stems.

Compound: CCCCCCCCC(=O)O [pelargonic acid]
- phytotoxicity or adverse ecological effects [1]: no phytotoxicity or adverse ecological effects were observed
- sucker growth inhibition [2]: > 90%
- sucker growth [3]: fully inhibited

Source: US11395488B2, “Use of compositions comprising pelargonic acid and specific non ionic surfactants for inhibiting the growth of suckers on plants” (BELCHIM CROP PROTECTION NV, priority 2016, dated 2022)
